Values of other authors in patent publication US4689323A, “Covalently bound heparin--antithrombin-III complex” (Miles Laboratories, Inc., priority 1983, dated 1987).

Tests used:
[1] = tested on: plasma antithrombin-III ("AT-III"); conditions: continuous intravenous infusion, thromboembolic patients
[2] = Scientific Protein Labs., porcine intestines

decrease in plasma antithrombin-III levels [1]: about 35%
Substance: heparin sodium
anticoagulant activity of the starting heparin [2]: 167.7 USP units/mg
